# According to patent US10233483B2, “Methods of targeted antibiotic susceptibility testing” (Qvella Corporation, priority 2013, dated 2019):
# Key:
# Klebsiella pneumoniae = experiment: Antimicrobial sensitivity testing of bacteria in partially lysed then enriched whole blood, real-time RT-PCR of rRNA and tmRNA; assay type: cell-based; conditions: 8 ug/mL final concentration, 2 hours incubation at 37° C. after 2 hours pre-incubation, K. pneumoniae spiked whole blood enriched with TSB
# Experimental: Unless any variation is specified, the following example pretreatment procedure which includes blood cell lysis step followed by 4 wash cycles was performed in experiments which required pretreatment of blood samples. 10 μL of Fluorinert™ was added to 2 mL siliconized microcentrifuge tubes (T3531, Sigma), followed by the addition of 500 μL of the blood cell lysis reagent. The blood cell lysis reagent consisted of 75 mg/mL saponin, 15 mg/mL SPS and 1% PPG. EDTA-treated human whole blood from healthy volunteers of 1 mL spiked with microbial cells was added to the tube containing the blood cell lysis reagent and the Fluorinert™, and mixed by inverting ten times and vortexing at low speeds for 10 sec. The final concentrations of the components in the mixture were 25 mg/mL saponin, 5 mg/mL SPS and 0.33% PPG. The tubes were centrifuged at 12,000 rpm for 1 min and 1.35 mL of the supernatant was removed, leaving 150 uL of the liquid supernatant, Fluorinert™ and the sedimented microbial I cells. The first wash cycles was performed by adding 1.35 mL of 0.8 mM phosphate buffer to the remaining liquid supernatant of 150 uL as described above, mixing by vortexing at low speed for 10 sec, centrifugation at 12,000 rpm for 1 min and removal of 1.35 mL of the supernatant, leaving 150 μL of the liquid supernatant, the Fluorinert™ and the sedimented microbial. […]
# E. coli = experiment: DnaK mRNA level after heat-shock induction in bacteria exposed to antibiotic, real-time RT-PCR; assay type: cell-based, Escherichia coli; conditions: 4 or 8 ug/mL, 120 min at 37° C. in LB broth, heat-shock 42° C. 3 min before E-lysis
# Experimental: Unless any variation was specified, RT-PCR reaction of 5 μL volume was prepared by mixing 1 μL of sample, 1 μL of Kapa 2G Robust Hotstart 5× buffer (KK5517, KAPA Biosystems), 0.05 μL of Kapa 2G Robust Hotstart DNA polymerase (kk5517, KAPA Biosystems), 0.2 μL of reverse transcriptase (GoScript, A5004 Promega), 0.04 uL of 100 mM dNTPs (10297-117, Life Technologies), 0.25 uL of DMSO, 0.13 uL of SYBR Green (1/375 dilution, S7563 Invitrogen), 0.5 μL each of respective forward and reverse primers (2.5 μM) and 1.34 μL of RNAase free water. In indicated experiments, for PCR reaction of 5 μL volume the composition was the same as RT-PCR reaction except 0.2 μL of RNAase free water was added instead of reverse transcriptase. Real time RT-PCR targeting rRNA or tmRNA was performed by reverse transcription at 50° C. for 5 min, inactivation of reverse transcriptase and activation of hotstart DNA polymerase at 97° C. for 5 min, followed by 35 to 40 cycles of cDNA amplification (denaturation at 95° C. for 5 sec, annealing at 63° for 7 sec, and extension at 72° C. for 10 sec) in Eco Real Time PCR system (Illumina) using a double stranded DNA binding fluorescent dye, SYBR Green. […]
# As it is observed, the exposure of microbial cells to the antibiotic norfloxacin reduced the quantity of target mRNA by approximately 8-16 times (corresponding to 3-4 PCR cycles).
smiles,measurement,setting,value
CCn1cc(C(=O)O)c(=O)c2cc(F)c(N3CCNCC3)cc21 [norfloxacin],rRNA and tmRNA RT-PCR signal in response to the antibiotic compared to without antibiotic (Non-treated) culture,Klebsiella pneumoniae,reduction of rRNA and tmRNA
same,reduction of target mRNA (DnaK) signal in PCR cycles after exposure to the antibiotic,E. coli,3-4 PCR cycles
same,reduction of the quantity of target mRNA (DnaK) after exposure to the antibiotic,E. coli,8-16 times
